Test results taken from US4882339A, “4-Amino-substituted 1,2-dihydroxynaphthalene derivatives useful in inhibiting 5-lipoxygenase activity in mammals” (Ciba-Geigy Corporation, priority 1987, dated 1989).
Like-named read-outs stand apart in the source and are kept apart here.

What was measured:
5-lipoxygenase [1] = test: Ex vivo inhibition of 5-lipoxygenase (A-23187-stimulated LTB4 formation in whole blood), rat; conditions: about 10-100 mg/kg p.o.
Protocol: (§1) Furthermore the inhibition of 5-lipoxygenase in vivo is determined after oral or i.v. administration to rats or dogs by measuring ex vivo in whole blood the inhibition of A-23187-stimulated LTB4 formation as compared to non-treated control animals.

5-lipoxygenase [2] = molecular target: T1, 5-lipoxygenase (Cavia porcellus, UniProt A0A286X958); test: Inhibition of the synthesis of 5-HETE and LTB4 in A-23187-stimulated guinea pig polymorphonuclear leukocytes; assay type: cell-based; conditions: for IC50: in vitro
T1 construct: A-23187-stimulated guinea pig polymorphonuclear leukocytes; endogenous in cells; host or cells: guinea pig polymorphonuclear leukocytes
T1 sequence (A0A286X958 1-674): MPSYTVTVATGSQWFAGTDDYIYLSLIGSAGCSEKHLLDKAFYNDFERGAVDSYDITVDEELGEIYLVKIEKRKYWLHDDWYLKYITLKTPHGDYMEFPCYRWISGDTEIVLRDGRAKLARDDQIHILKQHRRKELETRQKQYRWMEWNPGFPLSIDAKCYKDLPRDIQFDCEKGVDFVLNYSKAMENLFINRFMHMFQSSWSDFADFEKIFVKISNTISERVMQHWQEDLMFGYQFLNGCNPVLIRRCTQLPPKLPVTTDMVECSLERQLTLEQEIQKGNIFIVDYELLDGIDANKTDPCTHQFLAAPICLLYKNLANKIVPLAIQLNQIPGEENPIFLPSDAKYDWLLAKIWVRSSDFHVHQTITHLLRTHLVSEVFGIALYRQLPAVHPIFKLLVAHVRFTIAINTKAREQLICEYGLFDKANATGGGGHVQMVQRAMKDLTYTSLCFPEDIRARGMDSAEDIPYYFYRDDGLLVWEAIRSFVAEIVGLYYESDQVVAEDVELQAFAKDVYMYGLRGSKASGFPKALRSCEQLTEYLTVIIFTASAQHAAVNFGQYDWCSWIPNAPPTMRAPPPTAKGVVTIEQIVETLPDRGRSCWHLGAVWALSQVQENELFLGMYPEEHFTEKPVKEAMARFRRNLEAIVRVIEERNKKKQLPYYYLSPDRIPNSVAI
Protocol: 5-Lipoxygenase inhibition is determined e.g. by measuring the percent inhibition of the synthesis of 5-HETE [(5S)-5-hydroxy-6,8,11,14-eicosa-tetraenoic acid] and leukotriene B4 (LTB4, 5,12-dihydroxy-6,8,10,14-eicosatetraenoic acid) in A-23187-stimulated guinea pig polymorphonuclear leukocytes, essentially according to radiometric thin-layer chromatogrpahic assays described by Walker and Dawson (J. Pharm. Pharmacol. 31: 778, 1979) and Jakschik and Lee (Nature 287: 51, 1980) used to measure the formation of 5-HETE and LTB4 -like products from ^14 C-arachidonic acid. IC50 values are determined graphically as the concentration of test compound at which the synthesis of 5-HETE and LTB4 -like products is reduced to 50% of their respective control values.

5-lipoxygenase [3] = test: Ex vivo inhibition of 5-lipoxygenase (A-23187-stimulated LTB4 formation in whole blood), dog
Protocol: as §1

[4] = test system: rat pleurisy model of inflammation; test: Carrageenin-induced pleurisy model of inflammation in the rat; assay type: in vivo; conditions: 30 mg/kg p.o. b.i.d. for two days; 48 hours after carrageenin
[5] = In vivo metabolite identification after administration of 4-(N-methylcyclohexylamino)-1,2-diacetoxynaphthalene

Which “inhibition of 5-lipoxygenase activity ex vivo” value (5-lipoxygenase [1]) does the source give for `CC(=O)Oc1cc(N(C)C2CCCCC2)c2ccccc2c1OC(C)=O` [4-(N-methylcyclohexylamino)-1,2-diacetoxynaphthalene] here?
Its value is “inhibits 5-lipoxygenase activity”.

And the IC50 (5-lipoxygenase [2]; read-out: IC50 for LTB4 formation)?
Its IC50 is about 1000 nM.

What about the “inhibition of the formation of 5-HETE and leukotriene B4” value (5-lipoxygenase [2]; result in words) of the same compound?
The value was “inhibits the formation of 5-HETE [(5S)-5-hydroxy-6,8,11,14-eicosa-tetraenoic acid] and leukotriene B4”.

And the “inhibition of 5-lipoxygenase activity ex vivo” value (5-lipoxygenase [3]; 1 mg/kg i.v.)?
Its value is “inhibits 5-lipoxygenase activity”.

What about the “inhibition of 5-lipoxygenase activity ex vivo” value (5-lipoxygenase [3]; 100 mg/kg p.o.) of the same compound?
Its value is “inhibits 5-lipoxygenase activity”.

What about the “cell count of monocytes” value [4] of the same compound?
Its value is “lowers the cell count of polymorphonuclear leukocytes and of monocytes”.

What about the “cell count of polymorphonuclear leukocytes” value [4] of the same compound?
The value was “lowers the cell count of polymorphonuclear leukocytes”.

And the exudate volume [4]?
Its exudate volume is “causes inhibition of exudate volume”.

Which in vivo metabolite [5] does the source give for `CN(C1=CC(=O)C(=O)c2ccccc21)C1CCCCC1` [4-(N-methylcyclohexylamino)-1,2-naphthoquinone] here?
Its in vivo metabolite is “identified as an in vivo metabolite of 4-(N-methylcyclohexylamino)-1,2-diacetoxynaphthalene”.

And the IC50 (5-lipoxygenase [2]; read-out: IC50 for inhibition of the formation of LTB4)?
The IC50 was about 500 nM.
